Measurements from article PMC3834215, “RedOx Status, Proteasome and APEH: Insights into Anticancer Mechanisms of t10,c12-Conjugated Linoleic Acid Isomer on A375 Melanoma Cells” (PLoS ONE, 2013).

What was measured:
A375 melanoma cells = experiment: MTT cell viability, A375; assay type: cell-based, human; conditions: for reduction of cell viability: A375, 24h exposure, 50 to 200 μM
Method: (§1) The colorimetric 3-(4,5-dimethylthiazol-2)-2,5-diphenyltetrazolium bromide (MTT) (Sigma Aldrich, Milan) assay was used to quantify cell viability. Briefly, cells were incubated in 96 well microplates in the appropriate complete medium with standardized densities for 24h as pre-incubation process. The medium was removed and replaced by medium containing different doses of the different CLA-isomers for 24h. Following treatment, the medium was removed and the cells were incubated with DMEM w/o red phenol with 0.5 mg/ml MTT for additional 2 to 4h at 37 °C. After removal of the medium and MTT, cells in each plate were incubated with 0.1 M HCl/isopropanol to dissolve the MTT-formazan crystals. Absorbance at 590 nm was recorded with a plate reader (Bio Rad mod 680). The relative number of viable cells was expressed as a percentage of the control.

[1] = tested on: all cancer cells (U87, MCF7, MDA-MB, HeLa, Caco2, HepG2, A375M, A375); experiment: MTT cell viability, eight cancer cell lines; assay type: cell-based, human; conditions: up to 200 μM, 24h, data not shown
Method: as §1

20Si human proteasome = biological target: T1, 20Si human proteasome (Homo sapiens, UniProt P28062); experiment: Cell-free inhibition of CT-like activity of 20Si proteasome; assay type: biochemical; conditions: for IC50: 30 min pre-incubation, 37 °C, pH 7.5, N-Suc-LLVT-AMC 0.080 mM, read-out: IC50 on 20Si isoform (CT-like activity)
T1 construct: purchased Boston Biochem
Method: The fluorescent substrate N-succinyl-Leu-Leu-Val-Tyr-7-amido-4-methylcoumarin (N-Suc-LLVT-AMC) was used for measurement of the CT-like activity of the proteasome, both in cell free assays and in cancer cell extracts, at a final concentration of 0.080 mM at 37 °C in Tris buffer pH 7.5, following the procedure described in Palmieri et al. [25].

20S human proteasome = biological target: T2, 20S human proteasome (Homo sapiens, UniProt P28074); experiment: Cell-free inhibition of chymotrypsin-like (CT-like) activity of 20S proteasome; assay type: biochemical; conditions: for IC50: 30 min pre-incubation, 37 °C, pH 7.5, N-Suc-LLVT-AMC 0.080 mM, read-out: IC50 on 20S isoform (CT-like activity)
T2 construct: purchased Boston Biochem
Method: (§2) The fluorescent substrate N-succinyl-Leu-Leu-Val-Tyr-7-amido-4-methylcoumarin (N-Suc-LLVT-AMC) was used for measurement of the CT-like activity of the proteasome, both in cell free assays and in cancer cell extracts, at a final concentration of 0.080 mM at 37 °C in Tris buffer pH 7.5, following the procedure described in Palmieri et al..
(§3) Protease inhibition activities of CLA isomers and fatty acids were carried out using a fixed amount of commercially available APEH or 20S, 20Si, 26S proteasomes (3-5 nM or 0.12 mg/mL, respectively), and increasing concentrations of fatty acid. Mixtures were pre-incubated for 30min at 37 °C in 50 mM Tris-HCl buffer pH 7.5, before addition of the specific substrate, and the enzymatic activities were followed as described above.

[2] = tested on: proteasomal CT-like activity in A375 cells; experiment: Proteasomal CT-like activity in A375 cytoplasmic extracts after treatment; assay type: cell-based, human; conditions: for proteasomal CT-like activity inhibited to: 24h
Method: as §2
(§4) Following the treatments, cells were washed three times with ice cold phosphate-buffer saline (PBS) and cytosolic extracts were prepared accordingly to a published procedure. Protein concentrations were determined in supernatants by BCA protein assay reagent kit (Pierce). Western blotting analyses were performed as previously described.

γGCL mRNA in A375 cells = experiment: γGCL mRNA by qRT-PCR in A375; assay type: cell-based, human; conditions: A375, 200 μM, end of time course
[3] = tested on: HeLa cervical carcinoma cells; experiment: MTT cell viability, HeLa; assay type: cell-based, human; conditions: 24h exposure, 50 to 200 μM
Method: as §1

APEH mRNA in A375 cells = experiment: APEH mRNA by qRT-PCR in A375; assay type: cell-based, human
Method: (§5) mRNA expression levels of APEH and β-5 proteasome subunit were determined in treated or untreated cells to investigate on the functional relationship existing between APEH and proteasome activities and on their involvement in the anticancer activity of CLA.
(§6) Total RNA was isolated from the human cell lines (~10^6 cells aliquots) according to the SV Total RNA Isolation System (Promega) protocol, with an on column DNase I step. Total RNA concentrations were determined using a Qubit® Fluorometer (Invitrogen). RNAs were then reverse transcribed using the Transcriptor First Strand cDNA Synthesis Kit (Roche). 100 ng of reverse transcribed complementary DNA, and its dilution series to calculate the efficacy of primers, were amplified by quantitative real-time PCR (qRT-PCR) on an iCycleriQ™ (Bio-Rad) using 300 nM gene-specific primers, Maxima® SYBR Green/Fluorescein qPCR Master Mix (2X) (Fermentas) and the following PCR conditions: 1 cycle at 95 °C for 10min, and 40 cycles of 95 °C for 15s , 60 °C for 30s, and 72 °C for 30s.
(§7) The expression level of β-actin gene was used as an internal control for normalization (ref gene). Raw cycle threshold values (Ct values) obtained for the target genes were compared to the Ct value obtained for the ref gene. […]

[4] = tested on: β-5 proteasome subunit mRNA in A375 cells; experiment: β-5 proteasome subunit mRNA by qRT-PCR in A375; assay type: cell-based, human
Method: as §5, §6, §7

caspase 3 in A375 cells = experiment: Caspase 3 activity in A375 cells; assay type: cell-based, human; conditions: A375, 24h, doses 50, 100 or 200 μM, dose-dependent, maximum
Method: Pro-apoptotic and cytotoxic ability of CLA isomers were assayed by measuring caspase 3 and the activity of lactate dehydrogenase (LDH) in the spent media, respectively [25]. The caspase 3 activity, measured at 37 °C and pH 7.5, was expressed as fold increase compared to the control culture.

[5] = tested on: A375M metastatic melanoma cells; experiment: MTT cell viability, A375M; assay type: cell-based, human; conditions: 24h exposure, 50 to 200 μM
Method: as §1

Porcine liver APEH = biological target: T3, Porcine liver APEH (Sus scrofa, UniProt P19205); experiment: Cell-free APEH inhibition assay (acetyl-Ala-pNA); assay type: biochemical
T3 construct: purchased Takara; host or cells: porcine liver
T3 sequence (P19205 1-732): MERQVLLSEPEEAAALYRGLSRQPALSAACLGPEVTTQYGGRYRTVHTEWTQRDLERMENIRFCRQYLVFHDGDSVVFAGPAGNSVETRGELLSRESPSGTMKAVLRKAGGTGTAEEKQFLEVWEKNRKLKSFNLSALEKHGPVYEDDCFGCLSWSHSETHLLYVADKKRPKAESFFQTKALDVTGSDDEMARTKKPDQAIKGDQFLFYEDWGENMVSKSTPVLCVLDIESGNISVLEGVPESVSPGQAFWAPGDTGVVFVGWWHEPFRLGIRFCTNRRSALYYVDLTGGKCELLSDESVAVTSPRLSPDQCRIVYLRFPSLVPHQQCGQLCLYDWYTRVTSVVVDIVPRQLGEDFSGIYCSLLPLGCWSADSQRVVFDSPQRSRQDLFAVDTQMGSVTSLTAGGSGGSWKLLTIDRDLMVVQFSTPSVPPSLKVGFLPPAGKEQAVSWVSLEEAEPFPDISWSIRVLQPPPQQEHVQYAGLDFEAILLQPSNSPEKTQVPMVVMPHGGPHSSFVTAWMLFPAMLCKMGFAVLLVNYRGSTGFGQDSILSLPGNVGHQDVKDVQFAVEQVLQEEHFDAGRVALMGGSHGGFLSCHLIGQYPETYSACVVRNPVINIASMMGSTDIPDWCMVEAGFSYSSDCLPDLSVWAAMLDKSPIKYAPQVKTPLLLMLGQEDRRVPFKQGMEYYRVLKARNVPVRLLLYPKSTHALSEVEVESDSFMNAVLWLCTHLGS
Method: (§8) APEH activity was measured spectrophotometrically using the chromogenic substrate acetyl-Ala-pNA (Bachem) as described before. The reaction mixture containing pure APEH or an appropriate amount of cell extract was incubated at 37 °C in 50 mM Tris-HCl, pH 7.5 (Tris Buffer).
as §3

[6] = tested on: APEH activity in A375 cells; experiment: APEH activity in A375 cytoplasmic extracts after treatment; assay type: cell-based, human
Method: as §8, §4

Bcl-2 in A375 cells = experiment: Bcl-2 protein expression by immunoblotting in A375; assay type: cell-based, human; conditions: A375, 24h, 50-200 μM
Method: as §4

human fibroblasts = assay type: cell-based
Method: Human hepatoma cells (HepG2) were seeded (2x10^4cells/cm^2) and maintained for 24h in MEM (Gibco Invitrogen; Milano) medium supplemented with 2 mM L-glutamine, 1% nonessential amino acids and 10% FBS. Colon carcinoma (Caco-2), cervical carcinoma (Hela), glioblastoma (U87), melanoma (A375, A375M) and mammary adenocarcinoma (MCF7, MDA-MB) were seeded (1x10^4cells/cm^2) and grown in DMEM supplemented with 10% FBS, 2 mM L-glutamine. HepG2, Hela, U87, Caco-2, MCF7, MDA-MB, A375 and A375 metastatic melanoma (A375M) cell lines were obtained by ATCC (LCG standards, Milano, Italy). Normal human dermal fibroblast (NDHF) within 8th passage were seeded at a density of 2x10^4 cells/cm^2 and cultured in fibroblast growth medium (FGM-2; Lonza, Milan, Italy) containing 2% FBS, 50 μg/mL gentamycin and amphotericin B, 10μg/mL fibroblast growth factor and insulin. BHK21 cells (kindly donated by Dr. David Y Thomas, McGill University Montreal Canada) were cultured in DMEM/F12, 5% FBS, 1 mM L-glutamine, 200 µg/mL methotrexate, and 100units/mL penicillin-streptomycin. […]
The colorimetric 3-(4,5-dimethylthiazol-2)-2,5-diphenyltetrazolium bromide (MTT) (Sigma Aldrich, Milan) assay was used to quantify cell viability. […] Absorbance at 590 nm was recorded with a plate reader (Bio Rad mod 680). The relative number of viable cells was expressed as a percentage of the control.

[7] = tested on: intracellular GSH in A375 cells; experiment: Intracellular GSH in A375; assay type: cell-based, human; conditions: A375, 24h, 50, 100 or 200 μM
Method: Intracellular concentration of reduced and oxidized glutathione (GSH and GSSG, respectively) were quantified using the 5,5'-dithiobis(2-nitrobenzoic acid)-GSSG reductase recycling assay. GSSG content was preliminarily evaluated in cytosolic extracts of treated or untreated cells upon the addition of 10 mM 1-methyl-2-vinylpyridinium trifluoromethanesulfonate (a specific GSH scavenger).

[8] = tested on: MDA-MB mammary adenocarcinoma cells; experiment: MTT cell viability, MDA-MB; assay type: cell-based, human; conditions: 24h exposure, 50 to 200 μM
Method: as §1

[9] = negative control, data not shown

CCCCCC/C=C/C=C/CCCCCCCC(=O)O [t9,t11-CLA]
reduction of cell viability (A375 melanoma cells): about 50%

CCCCCCCC(=O)O [octanoic acid, reference compound]
effect on cell viability [1]: no significant results | inhibitory effect on 20Si CT-like activity (20Si human proteasome; [9]): only negligible effects | inhibitory effect on 20S CT-like activity (20S human proteasome; [9]): only negligible effects

CC(C)C[C@H](NC(=O)[C@H](Cc1ccccc1)NC(=O)c1cnccn1)B(O)O [BTZ, bortezomib, reference compound]
inhibition reached, 20S (20S human proteasome; plateau of dose-response curve): about 60% | IC50 (A375 melanoma cells; Homo sapiens, A-375, read-out: IC50 (dose accountable for 50% decrease of cell viability), A375, 24h): 10 ± 0.02 nM

CCCCC/C=C\C=C\CCCCCCCCC(=O)O [t10,c12-CLA, trans10,cis12 (t10,c12-CLA)]
proteasomal CT-like activity plateau, % of starting value ([2]; A375, 50 μM, plateau after 8h): 70% | proteasomal CT-like activity inhibited to ([2]; A375, 100 μM): 50% | proteasomal CT-like activity inhibited to ([2]; A375, 200 μM): 25% | down-regulation of γGCL mRNA levels (γGCL mRNA in A375 cells): 1.5 fold | reduction of cell viability [3]: 40% | IC50 (20Si human proteasome): 1.1 ± 0.2 µM | IC50 (20S human proteasome): 14.8 ± 2 µM | APEH mRNA stable final value vs initial expression level (APEH mRNA in A375 cells; A375, 50 μM, time course): approximately one-fold lower | APEH mRNA level (APEH mRNA in A375 cells; A375, 200 μM, 24h): strongly down-regulated | β-5 mRNA stable final value vs initial expression level ([4]; A375, 50 μM, time course): approximately one-fold lower | proteasome (β-5) mRNA level ([4]; A375, 200 μM, 24h): strongly down-regulated | caspase 3 activation compared to the control culture (caspase 3 in A375 cells): eightfold increase | reduction of cell viability [5]: 51% | reduction of cell viability (A375 melanoma cells): 63% | IC50 (Porcine liver APEH; 37 °C, pH 7.5): 110 ± 11.7 µM | maximum inhibition of APEH (Porcine liver APEH; dose-dependent): about 41% | APEH activity plateau, % of starting value ([6]; A375, 50 μM, plateau after 8h): 80% | APEH activity plateau, % of starting level ([6]; A375, 200 μM, time course): 70% | maximum reduction of Bcl-2 expression (Bcl-2 in A375 cells): 80% | toxic effects on fibroblast proliferation (human fibroblasts): lack of toxic effects | intracellular GSH [7]: significant decline

CCCCCC/C=C/C=C\CCCCCCCC(=O)O [c9,t11-CLA, cis9,trans11 (c9,t11-CLA)]
IC50 (20Si human proteasome): 6.4 ± 1 µM | IC50 (20S human proteasome): 31.2 ± 8.8 µM | reduction of cell viability [5]: < 40% | reduction of cell viability (A375 melanoma cells): < 40% | reduction of cell viability [8]: < 40%
